Legend:
late watergrass = experiment: Test Example 1: herbicidal activity, application before weed generation under submerged conditions (Table 16, symbol A); assay type: in vivo, late watergrass (Echinochloa oryzicola); settings: 320 g/ha applied herbicide
Summary of the method: (§1)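 Emulsion formulation, water-diluted to set dose, was put onto the flooded surface (4 cm depth, alluvial soil) the same day weeds were sown and 2.5-leaf rice transplanted. After 3 weeks at 25-30 °C under glass, each species was rated 0 (≤5% kill) to 5 (≥90% kill).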

Japanese bulrush = experiment: Test Example 1: herbicidal activity, application before weed generation under submerged conditions (Table 16, symbol B); assay type: in vivo, Japanese bulrush (Schoenoplectus juncoides); settings: 320 g/ha applied herbicide
Summary of the method: as §1

oval-leafed pondweed = experiment: Test Example 1: herbicidal activity, application before weed generation under submerged conditions (Table 16, symbol C); assay type: in vivo, oval-leafed pondweed (Monochoria vaginalis); settings: 320 g/ha applied herbicide
Summary of the method: as §1

barnyard grass [1] = experiment: Test Example 3: herbicidal effect by foliage application, Wagner pot (Table 18, symbol H); assay type: in vivo, barnyard grass (Echinochloa crus-galli)
Summary of the method: (§2)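 Plants were sown in alluvial soil held under 0.1–0.5 cm standing water and grown 14 days in a greenhouse at 25–30 °C. An emulsifiable formulation, water-diluted to the set dose, was then sprayed onto the foliage, and effects were scored three weeks later using previously defined criteria.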

Chinese sprangletop = experiment: Test Example 3: herbicidal effect by foliage application, Wagner pot (Table 18, symbol D); assay type: in vivo, chinese sprangletop (Leptochloa chinensis)
Summary of the method: as §2

rice flat sedge = experiment: Test Example 3: herbicidal effect by foliage application, Wagner pot (Table 18, symbol E); assay type: in vivo, rice flat sedge (Cyperus iria)
Summary of the method: as §2

southern crabgrass [2] = experiment: Test Example 4: herbicidal effect by soil treatment (Table 19, symbol F); assay type: in vivo, southern crabgrass (Digitaria ciliaris)
Summary of the method: (§3)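 Scoring uses the grading scale of an earlier test, three weeks post-application. Treatment consists of spraying a diluted emulsion formulation across the surface of sterilized diluvial soil in which seeds are buried near 1.5 cm deep; boxes are kept in a greenhouse between 25° C. and 30° C.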

green foxtail [3] = experiment: Test Example 4: herbicidal effect by soil treatment (Table 19, symbol G); assay type: in vivo, green foxtail (Setaria viridis)
Summary of the method: as §3

barnyard grass [4] = experiment: Test Example 4: herbicidal effect by soil treatment (Table 19, symbol H); assay type: in vivo, barnyard grass (Echinochloa crus-galli)
Summary of the method: as §3

wild oat [5] = experiment: Test Example 4: herbicidal effect by soil treatment (Table 19, symbol I); assay type: in vivo, wild oat (Avena fatua)
Summary of the method: as §3

Italian ryegrass [6] = experiment: Test Example 4: herbicidal effect by soil treatment (Table 19, symbol K); assay type: in vivo, Italian ryegrass (Lolium multiflorum)
Summary of the method: as §3

windgrass [7] = experiment: Test Example 4: herbicidal effect by soil treatment (Table 19, symbol L); assay type: in vivo, windgrass (Apera spica-venti)
Summary of the method: as §3

velvetleaf [8] = experiment: Test Example 4: herbicidal effect by soil treatment (Table 19, symbol M); assay type: in vivo, velvetleaf (Abutilon theophrasti)
Summary of the method: as §3

redroot pigweed [9] = experiment: Test Example 4: herbicidal effect by soil treatment (Table 19, symbol N); assay type: in vivo, redroot pigweed (Amaranthus retroflexus)
Summary of the method: as §3

lambsquarters [10] = experiment: Test Example 4: herbicidal effect by soil treatment (Table 19, symbol O); assay type: in vivo, lambsquarters (Chenopodium album)
Summary of the method: as §3

chickweed [11] = experiment: Test Example 4: herbicidal effect by soil treatment (Table 19, symbol P); assay type: in vivo, common chickweed (Stellaria media)
Summary of the method: as §3

persian speedwell [12] = experiment: Test Example 4: herbicidal effect by soil treatment (Table 19, symbol R); assay type: in vivo, Persian speedwell (Veronica persica)
Summary of the method: as §3

southern crabgrass [13] = experiment: Test Example 5: herbicidal effect by foliage application, plastic box (Table 20, symbol F); assay type: in vivo, southern crabgrass (Digitaria ciliaris); settings: foliage application
Summary of the method: (§4)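 Post-emergence foliar test in sterilized diluvial soil. Compound applied as water-diluted emulsion at a predetermined rate to 14-day-old plants; evaluation at three weeks.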

green foxtail [14] = experiment: Test Example 5: herbicidal effect by foliage application, plastic box (Table 20, symbol G); assay type: in vivo, green foxtail (Setaria viridis); settings: foliage application
Summary of the method: as §4

barnyard grass [15] = experiment: Test Example 5: herbicidal effect by foliage application, plastic box (Table 20, symbol H); assay type: in vivo, barnyard grass (Echinochloa crus-galli); settings: foliage application
Summary of the method: as §4

wild oat [16] = experiment: Test Example 5: herbicidal effect by foliage application, plastic box (Table 20, symbol I); assay type: in vivo, wild oat (Avena fatua); settings: foliage application
Summary of the method: as §4

blackgrass [17] = experiment: Test Example 5: herbicidal effect by foliage application, plastic box (Table 20, symbol J); assay type: in vivo, blackgrass (Alopecurus myosuroides); settings: foliage application
Summary of the method: as §4

Italian ryegrass [18] = experiment: Test Example 5: herbicidal effect by foliage application, plastic box (Table 20, symbol K); assay type: in vivo, Italian ryegrass (Lolium multiflorum); settings: foliage application
Summary of the method: as §4

windgrass [19] = experiment: Test Example 5: herbicidal effect by foliage application, plastic box (Table 20, symbol L); assay type: in vivo, windgrass (Apera spica-venti); settings: foliage application
Summary of the method: as §4

velvetleaf [20] = experiment: Test Example 5: herbicidal effect by foliage application, plastic box (Table 20, symbol M); assay type: in vivo, velvetleaf (Abutilon theophrasti); settings: foliage application
Summary of the method: as §4

redroot pigweed [21] = experiment: Test Example 5: herbicidal effect by foliage application, plastic box (Table 20, symbol N); assay type: in vivo, redroot pigweed (Amaranthus retroflexus); settings: foliage application
Summary of the method: as §4

lambsquarters [22] = experiment: Test Example 5: herbicidal effect by foliage application, plastic box (Table 20, symbol O); assay type: in vivo, lambsquarters (Chenopodium album); settings: foliage application
Summary of the method: as §4

chickweed [23] = experiment: Test Example 5: herbicidal effect by foliage application, plastic box (Table 20, symbol P); assay type: in vivo, common chickweed (Stellaria media); settings: foliage application
Summary of the method: as §4

false cleavers = experiment: Test Example 5: herbicidal effect by foliage application, plastic box (Table 20, symbol Q); assay type: in vivo, false cleavers (Galium spurium); settings: foliage application
Summary of the method: as §4

persian speedwell [24] = experiment: Test Example 5: herbicidal effect by foliage application, plastic box (Table 20, symbol R); assay type: in vivo, Persian speedwell (Veronica persica); settings: foliage application
Summary of the method: as §4

blackgrass [25] = experiment: Test Example 4: herbicidal effect by soil treatment (Table 19, symbol J); assay type: in vivo, blackgrass (Alopecurus myosuroides); settings: amount of applied herbicide 320 g/ha
Summary of the method: as §3

[26] = AAH 320 g/ha, three weeks after application
[27] = amount of applied herbicide 320 g/ha
[28] = 320 g/ha, evaluated three weeks after application

## Cc1nn(C)c(=O)c(-c2c(-c3ccccc3OCC3CC3)sc3ccccc23)c1O [1-113]
Late watergrass
  Herbicidal effect on A: late watergrass (grade 0-5): 3 (Herbicidal rate of 40% or more and less than 70%)
Japanese bulrush
  Herbicidal effect on B: Japanese bulrush (grade 0-5): 0 (Herbicidal rate of 5% or less (almost no effect))
oval-leafed pondweed
  Herbicidal effect on C: oval-leafed pondweed (grade 0-5): 0 (Herbicidal rate of 5% or less (almost no effect))
Barnyard grass [1]; 320 g/ha
  herbicidal effect on H (barnyard grass), rating 0-5: 4 (Herbicidal rate of 70% or more and less than 90%)
Chinese sprangletop; 320 g/ha
  herbicidal effect on D (Chinese sprangletop), rating 0-5: 0 (Herbicidal rate of 5% or less (almost no effect))
Rice flat sedge; 320 g/ha
  herbicidal effect on E (rice flat sedge), rating 0-5: 3 (Herbicidal rate of 40% or more and less than 70%)
Southern crabgrass [2]; AAH 320 g/ha
  F: southern crabgrass, herbicidal effect rating: 2 (Herbicidal rate of 20% or more and less than 40%)
Green foxtail [3]; AAH 320 g/ha
  G: green foxtail, herbicidal effect rating: 1 (Herbicidal rate of 5% or more and less than 20%)
Barnyard grass [4]; AAH 320 g/ha
  H: barnyard grass, herbicidal effect rating: 3 (Herbicidal rate of 40% or more and less than 70%)
Wild oat [5]; AAH 320 g/ha
  I: wild oat, herbicidal effect rating: 1 (Herbicidal rate of 5% or more and less than 20%)
Italian ryegrass [6]; AAH 320 g/ha
  K: Italian ryegrass, herbicidal effect rating: 0 (Herbicidal rate of 5% or less (almost no effect))
Windgrass [7]; AAH 320 g/ha
  L: windgrass, herbicidal effect rating: 0 (Herbicidal rate of 5% or less (almost no effect))
Velvetleaf [8]; AAH 320 g/ha
  M: velvetleaf, herbicidal effect rating: 0 (Herbicidal rate of 5% or less (almost no effect))
Redroot pigweed [9]; AAH 320 g/ha
  N: redroot pigweed, herbicidal effect rating: 3 (Herbicidal rate of 40% or more and less than 70%)
Lambsquarters [10]; AAH 320 g/ha
  O: lambsquarters, herbicidal effect rating: 2 (Herbicidal rate of 20% or more and less than 40%)
Chickweed [11]; AAH 320 g/ha
  P: chickweed, herbicidal effect rating: 4 (Herbicidal rate of 70% or more and less than 90%)
Persian speedwell [12]; AAH 320 g/ha
  R: persian speedwell, herbicidal effect rating: 5 (Herbicidal rate of 90% or more (almost completely withered))
Southern crabgrass [13]; [26]
  F: southern crabgrass, herbicidal effect: 0 (Herbicidal rate of 5% or less (almost no effect))
Green foxtail [14]; [26]
  G: green foxtail, herbicidal effect: 0 (Herbicidal rate of 5% or less (almost no effect))
Barnyard grass [15]; [26]
  H: barnyard grass, herbicidal effect: 1 (Herbicidal rate of 5% or more and less than 20%)
Wild oat [16]; [26]
  I: wild oat, herbicidal effect: 1 (Herbicidal rate of 5% or more and less than 20%)
Blackgrass [17]; [26]
  J: blackgrass, herbicidal effect: 3 (Herbicidal rate of 40% or more and less than 70%)
Italian ryegrass [18]; [26]
  K: Italian ryegrass, herbicidal effect: 1 (Herbicidal rate of 5% or more and less than 20%)
Windgrass [19]; [26]
  L: windgrass, herbicidal effect: 2 (Herbicidal rate of 20% or more and less than 40%)
Velvetleaf [20]; [26]
  M: velvetleaf, herbicidal effect: 3 (Herbicidal rate of 40% or more and less than 70%)
Redroot pigweed [21]; [26]
  N: redroot pigweed, herbicidal effect: 0 (Herbicidal rate of 5% or less (almost no effect))
Lambsquarters [22]; [26]
  O: lambsquarters, herbicidal effect: 0 (Herbicidal rate of 5% or less (almost no effect))
Chickweed [23]; [26]
  P: chickweed, herbicidal effect: 5 (Herbicidal rate of 90% or more (almost completely withered))
False cleavers; [26]
  Q: false cleavers, herbicidal effect: 5 (Herbicidal rate of 90% or more (almost completely withered))
Persian speedwell [24]; [26]
  R: persian speedwell, herbicidal effect: 5 (Herbicidal rate of 90% or more (almost completely withered))

## CCCC(=O)Oc1c(C)nn(C)c(=O)c1-c1c(-c2ccc(OC)c(F)c2)sc2ccc(Cl)cc12 [2-118]
Late watergrass
  Herbicidal effect on A: late watergrass (grade 0-5): 4 (Herbicidal rate of 70% or more and less than 90%)
Japanese bulrush
  Herbicidal effect on B: Japanese bulrush (grade 0-5): 3 (Herbicidal rate of 40% or more and less than 70%)
oval-leafed pondweed
  Herbicidal effect on C: oval-leafed pondweed (grade 0-5): 0 (Herbicidal rate of 5% or less (almost no effect))
Barnyard grass [1]; [27]
  herbicidal effect on H: barnyard grass: 2 (Herbicidal rate of 20% or more and less than 40%)
Chinese sprangletop; [27]
  herbicidal effect on D: Chinese sprangletop: 0 (Herbicidal rate of 5% or less (almost no effect))
Rice flat sedge; [27]
  herbicidal effect on E: rice flat sedge: 0 (Herbicidal rate of 5% or less (almost no effect))
Southern crabgrass [2]; [27]
  F: southern crabgrass, herbicidal effect rating: 0 (Herbicidal rate of 5% or less (almost no effect))
Green foxtail [3]; [27]
  G: green foxtail, herbicidal effect rating: 0 (Herbicidal rate of 5% or less (almost no effect))
Barnyard grass [4]; [27]
  H: barnyard grass, herbicidal effect rating: 0 (Herbicidal rate of 5% or less (almost no effect))
Wild oat [5]; [27]
  I: wild oat, herbicidal effect rating: 0 (Herbicidal rate of 5% or less (almost no effect))
Blackgrass [25]
  J: blackgrass, herbicidal effect rating: 0 (Herbicidal rate of 5% or less (almost no effect))
Italian ryegrass [6]; [27]
  K: Italian ryegrass, herbicidal effect rating: 0 (Herbicidal rate of 5% or less (almost no effect))
Windgrass [7]; [27]
  L: windgrass, herbicidal effect rating: 0 (Herbicidal rate of 5% or less (almost no effect))
Velvetleaf [8]; [27]
  M: velvetleaf, herbicidal effect rating: 1 (Herbicidal rate of 5% or more and less than 20%)
Redroot pigweed [9]; [27]
  N: redroot pigweed, herbicidal effect rating: 0 (Herbicidal rate of 5% or less (almost no effect))
Lambsquarters [10]; [27]
  O: lambsquarters, herbicidal effect rating: 2 (Herbicidal rate of 20% or more and less than 40%)
Chickweed [11]; [27]
  P: chickweed, herbicidal effect rating: 4 (Herbicidal rate of 70% or more and less than 90%)
Persian speedwell [12]; [27]
  R: persian speedwell, herbicidal effect rating: 5 (Herbicidal rate of 90% or more (almost completely withered))
Southern crabgrass [13]; [28]
  herbicidal effect on F: southern crabgrass: 0 (Herbicidal rate of 5% or less (almost no effect))
Green foxtail [14]; [28]
  herbicidal effect on G: green foxtail: 0 (Herbicidal rate of 5% or less (almost no effect))
Barnyard grass [15]; [28]
  herbicidal effect on H: barnyard grass: 0 (Herbicidal rate of 5% or less (almost no effect))
Wild oat [16]; [28]
  herbicidal effect on I: wild oat: 0 (Herbicidal rate of 5% or less (almost no effect))
Blackgrass [17]; [28]
  herbicidal effect on J: blackgrass: 0 (Herbicidal rate of 5% or less (almost no effect))
Italian ryegrass [18]; [28]
  herbicidal effect on K: Italian ryegrass: 0 (Herbicidal rate of 5% or less (almost no effect))
Windgrass [19]; [28]
  herbicidal effect on L: windgrass: 0 (Herbicidal rate of 5% or less (almost no effect))
Velvetleaf [20]; [28]
  herbicidal effect on M: velvetleaf: 3 (Herbicidal rate of 40% or more and less than 70%)
Redroot pigweed [21]; [28]
  herbicidal effect on N: redroot pigweed: 0 (Herbicidal rate of 5% or less (almost no effect))
Lambsquarters [22]; [28]
  herbicidal effect on O: lambsquarters: 1 (Herbicidal rate of 5% or more and less than 20%)
Chickweed [23]; [28]
  herbicidal effect on P: chickweed: 5 (Herbicidal rate of 90% or more (almost completely withered))
False cleavers; [28]
  herbicidal effect on Q: false cleavers: 1 (Herbicidal rate of 5% or more and less than 20%)
Persian speedwell [24]; [28]
  herbicidal effect on R: persian speedwell: 5 (Herbicidal rate of 90% or more (almost completely withered))
